Experimental data from ChEMBL document CHEMBL4402608 (J Med Chem, 2020).

Columns and labels:
[1] = target: D(4) dopamine receptor (Homo sapiens, UniProt P21917); assay: Agonist activity at Gi/Go-coupled human D4R expressed in CHOK1 cells assessed as induction of beta-arrestin recruitment at 10 uM measured after 90 mins by beta-galactosidase based PathHunter assay; type: cell-based
[2] = target: 5-hydroxytryptamine receptor 2A (Homo sapiens, UniProt P28223); assay: Displacement of [3H]-Ketanserin from 5HT2A receptor (unknown origin) measured after 90 mins by microbeta scintillation counting method
[3] = target: 5-hydroxytryptamine receptor 2B (Homo sapiens, UniProt P41595); assay: Displacement of [3H]-LSD from recombinant human 5HT2B receptor stably expressed in HEK cell membranes measured after 90 mins by microbeta scintillation counting method
[4] = target: 5-hydroxytryptamine receptor 2C (Homo sapiens, UniProt P28335); assay: Displacement of [3H]-Mesulergine from recombinant human 5HT2C receptor expressed in HEK cell membranes measured after 90 mins by microbeta scintillation counting method
[5] = target: T1, Alpha-1B adrenergic receptor (Homo sapiens, UniProt P35368); assay: Displacement of [3H]-prazosin from recombinant human alpha1B adrenergic receptor transiently expressed in HEKT cell membranes measured after 90 mins by microbeta scintillation counting method
T1 sequence (P35368 whole entry): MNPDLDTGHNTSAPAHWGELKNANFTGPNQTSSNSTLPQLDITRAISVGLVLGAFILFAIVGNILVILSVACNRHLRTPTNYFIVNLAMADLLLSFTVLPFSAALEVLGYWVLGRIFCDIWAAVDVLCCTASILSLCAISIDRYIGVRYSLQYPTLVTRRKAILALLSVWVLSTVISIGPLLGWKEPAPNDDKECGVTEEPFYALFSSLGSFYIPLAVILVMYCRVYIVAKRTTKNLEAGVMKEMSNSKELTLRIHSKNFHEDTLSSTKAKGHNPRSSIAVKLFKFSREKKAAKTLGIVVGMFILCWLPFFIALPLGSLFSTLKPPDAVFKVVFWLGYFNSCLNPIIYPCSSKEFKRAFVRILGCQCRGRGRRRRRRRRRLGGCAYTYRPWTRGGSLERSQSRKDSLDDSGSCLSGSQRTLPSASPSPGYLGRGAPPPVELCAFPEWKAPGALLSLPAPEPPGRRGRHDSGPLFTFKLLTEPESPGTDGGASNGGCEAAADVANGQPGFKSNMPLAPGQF

[6] = target: T2, Alpha-1D adrenergic receptor (Homo sapiens, UniProt P25100); assay: Displacement of [3H]-prazosin from recombinant human alpha1D adrenergic receptor measured after 90 mins by microbeta scintillation counting method
T2 sequence (P25100 whole entry): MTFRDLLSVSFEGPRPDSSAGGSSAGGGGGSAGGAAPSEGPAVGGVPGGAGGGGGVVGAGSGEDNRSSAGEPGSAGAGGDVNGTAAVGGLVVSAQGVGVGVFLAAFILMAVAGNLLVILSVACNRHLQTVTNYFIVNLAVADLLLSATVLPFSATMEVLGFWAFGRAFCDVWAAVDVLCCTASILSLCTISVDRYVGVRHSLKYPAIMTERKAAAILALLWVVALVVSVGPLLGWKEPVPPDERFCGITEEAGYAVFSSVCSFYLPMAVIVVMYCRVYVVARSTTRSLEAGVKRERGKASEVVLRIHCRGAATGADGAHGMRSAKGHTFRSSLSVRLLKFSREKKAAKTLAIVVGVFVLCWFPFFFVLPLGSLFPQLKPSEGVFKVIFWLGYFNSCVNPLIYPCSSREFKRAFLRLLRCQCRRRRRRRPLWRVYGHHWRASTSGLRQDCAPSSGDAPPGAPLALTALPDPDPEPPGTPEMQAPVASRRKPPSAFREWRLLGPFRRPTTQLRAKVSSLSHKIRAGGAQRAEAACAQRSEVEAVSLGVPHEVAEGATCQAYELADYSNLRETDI

[7] = target: T3, Histamine H1 receptor (Homo sapiens, UniProt P35367); assay: Displacement of [3H]-pyrilamine from human histamine H1 receptor expressed in stable HEK cell membranes after 90 mins by microbeta scintillation counting method
[8] = target: Muscarinic acetylcholine receptor M5 (Homo sapiens, UniProt P08912); assay: Displacement of [3H]-QNB/[3H]-NMS from human muscarinic M5 receptor expressed in stable CHO cell membranes after 90 mins by microbeta scintillation counting method
[9] = target: 5HT1D receptor (Homo sapiens, UniProt P28221); assay: Displacement of [3H]5-CT from recombinant human 5HT1D receptor transiently expressed in HEKT cell membranes at 10 uM measured after 90 mins by microbeta scintillation counting method relative to control; settings: probe [3H]5-CT
[10] = target: 5HT1E receptor (Homo sapiens, UniProt P28566); assay: Displacement of [3H]5-HT from recombinant human 5HT1E receptor stably expressed in HEK cell membranes at 10 uM measured after 90 mins by microbeta scintillation counting method relative to control; settings: probe [3H]5-HT
[11] = target: 5HT5A receptor (Homo sapiens, UniProt P47898); assay: Displacement of [3H]-LSD from recombinant human 5HT5A receptor stably expressed in Flp-In CHO cell membranes at 10 uM measured after 90 mins by microbeta scintillation counting method relative to control; settings: probe [3H]-LSD
[12] = target: T1, Alpha-1B adrenergic receptor; assay: Displacement of [3H]-prazosin from recombinant human alpha1B adrenergic receptor transiently expressed in HEKT cell membranes at 10 uM measured after 90 mins by microbeta scintillation counting method relative to control; settings: probe [3H]-prazosin
[13] = target: dopamine transporter (DAT) (Homo sapiens, UniProt Q01959); assay: Displacement of [3H]-Win35428 from human DAT expressed in stable HEK cell membranes at 10 uM after 90 mins by microbeta scintillation counting method relative to control; settings: stable HEK cell membranes expressing human DAT, probe [3H]-Win35428
[14] = target: T3, Histamine H1 receptor; assay: Displacement of [3H]-pyrilamine from human histamine H1 receptor expressed in stable HEK cell membranes at 10 uM after 90 mins by microbeta scintillation counting method relative to control; settings: probe [3H]-pyrilamine
[15] = target: muscarinic M4 receptor (Homo sapiens, UniProt P08173); assay: Displacement of [3H]-QNB/[3H]-NMS from human muscarinic M4 receptor expressed in stable CHO cell membranes at 10 uM after 90 mins by microbeta scintillation counting method relative to control; settings: probe [3H]-QNB/[3H]-NMS
[16] = target: sigma 2 receptor (Homo sapiens, UniProt Q5BJF2); assay: Displacement of [3H]-DTG from sigma 2 receptor (unknown origin) at 10 uM measured after 90 mins by microbeta counting analysis relative to control; settings: probe [3H]-DTG
[17] = target: 5-hydroxytryptamine receptor 2C (Homo sapiens) (UniProt P28335); assay: Displacement of [3H]-Mesulergine from recombinant human 5HT2C receptor expressed in HEK cell membranes at 10 uM measured after 90 mins by microbeta scintillation counting method relative to control; settings: probe [3H]-Mesulergine
[18] = target: 5-hydroxytryptamine receptor 1D (Homo sapiens, UniProt P28221)
[19] = target: 5-hydroxytryptamine receptor 6 (Homo sapiens, UniProt P50406)
[20] = target: Histamine H4 receptor (Homo sapiens, UniProt Q9H3N8)

With `CCCN(CC[C@]1(O)C[C@H](NC(=O)c2ccc3ccccc3c2)C1)[C@H]1CCc2nc(N)sc2C1` the Activity [1] was “Active”, the Ki ([2]; read-out: Ki) was 2840 nM and the Ki ([3]; read-out: Ki) was 1180 nM. It also gave a Ki ([4]; read-out: Ki) of 762 nM, a Ki ([5]; read-out: Ki) of 666 nM and a Ki ([6]; read-out: Ki) of 1180 nM. For the same compound, the Ki ([7]; read-out: Ki) was 110 nM, the Ki ([8]; read-out: Ki) was 2300 nM and the inhibition at […], 10 µM [9] was under 50%. For the same compound, the inhibition at […], 10 µM [10] was under 50%, the inhibition at […], 10 µM [11] was under 50% and the inhibition at […], 10 µM [12] was over 50%. It also gave an inhibition at […], 10 µM [13] of over 50%, an inhibition at […], 10 µM [14] of over 50% and an inhibition at […], 10 µM [15] of over 50%. The inhibition at […], 10 µM [16] was under 50% and the inhibition at […], 10 µM [17] was over 50%.

With `CCCN[C@H]1CCc2nc(N)sc2C1` [PRAMIPEXOLE] the Ki [2] was “Not Active”, the Ki [3] was “Not Active” and the Ki [4] was “Not Active”. For the same compound, the Ki [5] was “Not Active”, the Ki [6] was “Not Active” and the Ki [7] was “Not Active”. The Ki ([8]; cho) was “Not Active”, the inhibition at […], 10 µM [9] was over 50% and the inhibition at […], 10 µM [10] was over 50%. The inhibition at […], 10 µM [11] was over 50%, the inhibition at […], 10 µM [12] was under 50% and the inhibition at […], 10 µM [13] was under 50%. It also gave an inhibition at […], 10 µM [14] of under 50%, an inhibition at […], 10 µM [15] of under 50% and an inhibition at […], 10 µM [16] of under 50%. It also gave a Ki [18] of over 10000 nM, a Ki [19] of over 10000 nM and a Ki [20] of over 10000 nM. The inhibition at […], 10 µM [17] was under 50%.
